The record followed here is ChEMBL document CHEMBL5465560, “Selectivity Literature for EUbOPEN Chemogenomic Library” (2024).

In assay [1] the target is T1, Cytoplasmic tyrosine-protein kinase BMX (Homo sapiens) (UniProt P51813).
T1 sequence (whole entry): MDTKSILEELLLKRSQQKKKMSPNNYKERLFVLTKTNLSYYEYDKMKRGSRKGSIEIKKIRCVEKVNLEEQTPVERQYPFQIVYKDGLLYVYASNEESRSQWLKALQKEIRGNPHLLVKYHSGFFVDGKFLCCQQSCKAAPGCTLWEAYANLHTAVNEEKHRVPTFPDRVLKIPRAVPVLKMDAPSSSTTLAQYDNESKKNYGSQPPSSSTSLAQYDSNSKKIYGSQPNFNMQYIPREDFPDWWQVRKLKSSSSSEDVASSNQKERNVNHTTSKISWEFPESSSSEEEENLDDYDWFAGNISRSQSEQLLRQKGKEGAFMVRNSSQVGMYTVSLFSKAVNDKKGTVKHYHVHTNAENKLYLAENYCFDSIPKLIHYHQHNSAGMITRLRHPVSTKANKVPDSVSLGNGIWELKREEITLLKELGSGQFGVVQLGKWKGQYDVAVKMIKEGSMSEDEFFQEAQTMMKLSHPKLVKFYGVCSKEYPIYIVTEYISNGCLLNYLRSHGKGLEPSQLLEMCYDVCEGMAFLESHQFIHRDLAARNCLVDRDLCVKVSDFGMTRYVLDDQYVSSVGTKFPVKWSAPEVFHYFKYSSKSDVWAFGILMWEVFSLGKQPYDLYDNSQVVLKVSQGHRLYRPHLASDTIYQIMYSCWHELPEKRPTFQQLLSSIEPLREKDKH
Kind of assay: Selectivity interaction (Millipore kinase profiler) EUB0000124b BMX. The note with it: at 10 µM.

For assay [2], the target named is Protein arginine N-methyltransferase 6 (Homo sapiens, UniProt Q96LA8). The experiment in a line: Selectivity interaction (Methyltransferase screen (Scintillation proximity assays)) EUB0000255b PRMT6.
Sequence of Protein arginine N-methyltransferase 6 (Q96LA8 whole entry, looked up): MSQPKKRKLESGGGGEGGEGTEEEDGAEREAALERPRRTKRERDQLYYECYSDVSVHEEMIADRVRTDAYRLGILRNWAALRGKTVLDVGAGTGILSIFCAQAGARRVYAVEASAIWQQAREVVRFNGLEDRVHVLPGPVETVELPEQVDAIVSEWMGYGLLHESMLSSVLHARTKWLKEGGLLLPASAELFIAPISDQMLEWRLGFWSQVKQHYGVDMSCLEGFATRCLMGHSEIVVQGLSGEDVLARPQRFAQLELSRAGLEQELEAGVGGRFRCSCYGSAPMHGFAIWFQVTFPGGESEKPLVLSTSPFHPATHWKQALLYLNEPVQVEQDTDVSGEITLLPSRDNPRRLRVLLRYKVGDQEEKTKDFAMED
The target in assay [3] is T2, Serine/threonine-protein kinase Sgk3 (Homo sapiens) (UniProt Q96BR1).
T2 sequence (whole entry): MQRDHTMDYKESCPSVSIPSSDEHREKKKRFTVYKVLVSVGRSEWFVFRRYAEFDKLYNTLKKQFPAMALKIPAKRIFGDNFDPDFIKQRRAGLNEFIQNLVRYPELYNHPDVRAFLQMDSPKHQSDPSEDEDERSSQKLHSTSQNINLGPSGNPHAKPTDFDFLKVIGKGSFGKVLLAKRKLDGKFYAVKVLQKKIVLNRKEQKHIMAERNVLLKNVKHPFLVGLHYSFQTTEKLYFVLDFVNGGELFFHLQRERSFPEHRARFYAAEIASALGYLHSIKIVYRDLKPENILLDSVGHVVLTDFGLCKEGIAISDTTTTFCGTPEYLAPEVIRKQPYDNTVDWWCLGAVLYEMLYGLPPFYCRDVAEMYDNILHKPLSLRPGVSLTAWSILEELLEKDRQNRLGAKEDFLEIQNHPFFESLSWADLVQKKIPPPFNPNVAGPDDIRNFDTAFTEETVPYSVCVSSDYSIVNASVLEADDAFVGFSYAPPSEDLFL
Kind of assay: Selectivity interaction (Kinase screening (Nanosyn)) EUB0000604a SGK3.

Assay [4] has as its target Cyclin-dependent kinase 16 (Homo sapiens) (UniProt Q00536). Kind of assay: Selectivity interaction (KinomeScan (DiscoverX)) EUB0000666a CDK16. Conditions: at 10 µM.
The target in assay [5] is T3, Cyclin-dependent kinase-like 5 (Homo sapiens) (UniProt O76039).
T3 sequence (whole entry): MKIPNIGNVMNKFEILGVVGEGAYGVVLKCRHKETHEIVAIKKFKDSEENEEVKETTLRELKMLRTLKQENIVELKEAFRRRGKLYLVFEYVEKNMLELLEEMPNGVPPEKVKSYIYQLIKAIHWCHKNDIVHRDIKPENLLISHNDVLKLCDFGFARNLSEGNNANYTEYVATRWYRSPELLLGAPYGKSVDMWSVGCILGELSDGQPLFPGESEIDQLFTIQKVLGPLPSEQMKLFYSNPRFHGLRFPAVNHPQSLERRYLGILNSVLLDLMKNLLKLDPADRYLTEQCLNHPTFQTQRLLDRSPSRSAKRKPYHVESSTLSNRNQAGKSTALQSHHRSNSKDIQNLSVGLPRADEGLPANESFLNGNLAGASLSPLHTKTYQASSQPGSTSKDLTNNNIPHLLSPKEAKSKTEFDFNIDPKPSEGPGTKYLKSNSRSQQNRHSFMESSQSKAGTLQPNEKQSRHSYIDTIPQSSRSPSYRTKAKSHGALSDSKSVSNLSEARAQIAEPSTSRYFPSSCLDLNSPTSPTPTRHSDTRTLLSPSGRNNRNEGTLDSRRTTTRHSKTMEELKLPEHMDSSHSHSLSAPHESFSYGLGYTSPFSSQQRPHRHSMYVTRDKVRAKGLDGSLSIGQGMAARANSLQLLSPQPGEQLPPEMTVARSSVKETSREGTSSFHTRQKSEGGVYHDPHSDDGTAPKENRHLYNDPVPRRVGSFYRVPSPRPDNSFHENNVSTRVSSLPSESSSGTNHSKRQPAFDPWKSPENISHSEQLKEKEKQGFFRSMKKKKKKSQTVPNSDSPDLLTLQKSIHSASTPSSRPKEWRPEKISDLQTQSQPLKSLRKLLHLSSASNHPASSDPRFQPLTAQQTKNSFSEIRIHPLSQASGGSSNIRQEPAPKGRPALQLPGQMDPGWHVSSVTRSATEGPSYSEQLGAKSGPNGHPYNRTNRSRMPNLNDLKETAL
The experiment in a line: Selectivity interaction (KinomeScan (DiscoverX)) EUB0000607a CDKL5. The note with it: at 10 µM.

Another assay has as its target Aurora kinase B (Homo sapiens, UniProt Q96GD4). The experiment in a line: Selectivity interaction (ActivX KiNativ screen (kinase selectivity in THP-1 cell lysates)) EUB0000639a AURKB. The assay is classed as subcellular. Conditions: lysate, at 0.04 µM.
Assay [6] deals with Homeodomain-interacting protein kinase 1 (Homo sapiens, UniProt Q86Z02). Kind of assay: Selectivity interaction (KinomeScan (DiscoverX)) EUB0000618a HIPK1. Conditions: at 10 µM.
Sequence of Homeodomain-interacting protein kinase 1 (Q86Z02 whole entry, looked up): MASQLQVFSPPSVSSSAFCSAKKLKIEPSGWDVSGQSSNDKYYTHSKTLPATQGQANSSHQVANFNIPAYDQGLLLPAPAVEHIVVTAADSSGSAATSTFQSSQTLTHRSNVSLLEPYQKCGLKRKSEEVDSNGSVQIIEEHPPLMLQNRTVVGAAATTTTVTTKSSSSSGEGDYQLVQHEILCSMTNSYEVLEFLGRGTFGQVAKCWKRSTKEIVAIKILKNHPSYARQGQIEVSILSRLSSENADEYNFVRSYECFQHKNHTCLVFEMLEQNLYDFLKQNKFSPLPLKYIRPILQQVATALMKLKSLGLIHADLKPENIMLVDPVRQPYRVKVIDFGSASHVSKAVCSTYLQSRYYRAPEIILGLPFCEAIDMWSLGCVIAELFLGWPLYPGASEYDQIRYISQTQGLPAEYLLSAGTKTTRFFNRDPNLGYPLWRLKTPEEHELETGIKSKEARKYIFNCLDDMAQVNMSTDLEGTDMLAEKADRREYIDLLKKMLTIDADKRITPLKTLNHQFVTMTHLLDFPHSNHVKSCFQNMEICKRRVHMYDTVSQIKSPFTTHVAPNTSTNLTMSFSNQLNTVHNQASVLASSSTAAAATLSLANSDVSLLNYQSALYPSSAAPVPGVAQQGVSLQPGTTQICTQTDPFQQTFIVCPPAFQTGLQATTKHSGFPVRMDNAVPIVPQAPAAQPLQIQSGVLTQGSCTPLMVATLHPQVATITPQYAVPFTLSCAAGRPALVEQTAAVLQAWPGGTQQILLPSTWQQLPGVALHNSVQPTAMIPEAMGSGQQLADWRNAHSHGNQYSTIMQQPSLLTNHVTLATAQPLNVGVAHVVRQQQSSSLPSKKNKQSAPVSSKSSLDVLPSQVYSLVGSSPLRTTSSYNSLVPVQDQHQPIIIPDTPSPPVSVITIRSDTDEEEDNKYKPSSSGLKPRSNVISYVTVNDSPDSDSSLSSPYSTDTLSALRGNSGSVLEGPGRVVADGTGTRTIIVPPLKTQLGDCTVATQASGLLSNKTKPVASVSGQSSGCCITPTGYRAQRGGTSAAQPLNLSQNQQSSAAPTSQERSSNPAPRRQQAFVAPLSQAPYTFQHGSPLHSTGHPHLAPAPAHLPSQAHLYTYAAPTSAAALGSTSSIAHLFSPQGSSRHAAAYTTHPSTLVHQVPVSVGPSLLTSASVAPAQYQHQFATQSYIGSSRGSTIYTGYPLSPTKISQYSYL

Sequence of Cyclin-dependent kinase 16 (Homo sapiens) (Q00536 whole entry): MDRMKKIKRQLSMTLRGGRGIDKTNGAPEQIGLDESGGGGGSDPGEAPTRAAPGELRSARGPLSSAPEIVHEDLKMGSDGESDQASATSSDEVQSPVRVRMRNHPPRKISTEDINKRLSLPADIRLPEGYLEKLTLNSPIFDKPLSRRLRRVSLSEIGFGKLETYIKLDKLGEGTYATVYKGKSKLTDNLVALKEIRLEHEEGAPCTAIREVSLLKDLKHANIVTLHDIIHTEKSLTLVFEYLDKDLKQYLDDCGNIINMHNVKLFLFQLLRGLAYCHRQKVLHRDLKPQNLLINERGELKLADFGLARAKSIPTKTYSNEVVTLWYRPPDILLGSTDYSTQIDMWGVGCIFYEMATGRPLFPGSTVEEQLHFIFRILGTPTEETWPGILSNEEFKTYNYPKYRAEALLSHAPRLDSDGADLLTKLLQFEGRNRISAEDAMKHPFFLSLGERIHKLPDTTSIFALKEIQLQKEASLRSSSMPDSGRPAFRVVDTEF
Sequence of Aurora kinase B (Q96GD4 whole entry): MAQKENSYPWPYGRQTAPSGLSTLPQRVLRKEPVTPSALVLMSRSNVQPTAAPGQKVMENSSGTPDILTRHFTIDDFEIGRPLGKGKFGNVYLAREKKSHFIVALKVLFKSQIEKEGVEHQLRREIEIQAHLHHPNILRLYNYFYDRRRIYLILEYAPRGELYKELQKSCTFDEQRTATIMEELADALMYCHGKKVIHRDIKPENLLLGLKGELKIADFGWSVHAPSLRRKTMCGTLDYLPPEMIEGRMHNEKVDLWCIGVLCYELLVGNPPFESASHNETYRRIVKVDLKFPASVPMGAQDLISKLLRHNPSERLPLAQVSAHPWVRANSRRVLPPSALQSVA

In assay [1], `CC(=O)Nc1cccc(-n2c(=O)n(C3CC3)c(=O)c3c(Nc4ccc(I)cc4F)n(C)c(=O)c(C)c32)c1` returned a % of control of 93%.
`COCCN1CCC(c2cc(CN(C)C(=O)c3cccc(Oc4ccccc4)c3)ccn2)CC1`: the % activity in assay [2] (at 1 µM) is 17%; in assay [2] (at 10 µM) it was over 90%.
Take `Cc1cnc(Nc2ccc(F)cc2Cl)nc1-c1c[nH]c(C(=O)N[C@H](CO)c2cccc(Cl)c2)c1`: the % of inhibition in assay [3] was 2%.
Regarding `O=C(NOC[C@H](O)CO)c1ccc(F)c(F)c1Nc1ccc(I)cc1F`, in assay [4], the % of control was determined as 100%.
`CNC(=O)Nc1ccc(-c2nc(N3CC4CCC(C3)O4)c3cnn(C4CCC5(CC4)OCCO5)c3n2)cc1` had a % of control in assay [5] of 79%.
For `CC[C@@H]1[C@H](F)C(=O)N[C@@H]1COc1nccc2cc(C(N)=O)c(OC)cc12` [ZIMLOVISERTIB], the % of inhibition at Aurora kinase B is -1.3%.
Compound `O[C@H]1CC[C@H](Nc2ncc3nc(Nc4c(F)cc(F)cc4F)n([C@H]4CCOC4)c3n2)CC1` yielded a % of control in assay [6] of 93%.
